We go through 36 compounds from ChEMBL document CHEMBL6178014, “Discovery and Administration Optimization of Novel Selective CDK9 Inhibitor, 1-7a-B1, for Improved Pharmacokinetics and Antitumor Efficacy In Vivo” (J Med Chem, 2025).

One data set addresses CDK9/cyclin T1 (Homo sapiens, UniProt P50750). Briefly: Inhibition of His-tagged full length human recombinant CDK9/cyclinT1 using KTFCGTPEYLAPEVRREPRILSEEEQEMFRDFDYIADWC as substrate incubated for 60 mins by ADP-Glo kinase assay. The class given is protein-complex assay. In general terms: ADP-Glo first removes unused ATP, then detects ADP through luciferase.
Data set [1] concerns HCT-116. The data set can be described thus: Antiproliferative activity against human HCT-116 cells assessed as inhibition of cell growth incubated for 48 hrs by CCK8 assay. The class given is functional.
A further data set relates to HT-29. The data set can be described thus: Antiproliferative activity against human HT-29 cells assessed as inhibition of cell growth incubated for 48 hrs by CCK8 assay. The class given is functional. Background: Formazan colour is commonly taken as a measure of viable cells.
Another data set addresses CYP2C19 (Homo sapiens, UniProt P33261). The data set can be described thus: Inhibition of CYP2C19 in human liver microsome at 10 uM pre-incubated with compound for 10 mins in presence of NADPH-regenerating system by LC-MS/MS analysis relative to control. The class given is ADME. The note with it: liver microsomes. Background: Liver microsomes are a subcellular fraction often used to study metabolism.

The nature of data set [2]: Metabolic stability in human liver microsome assessed as half life at 100 uM pre-incubated with compound for 60 mins followed by NADPH addition and measured up to 60 mins by LC-MS/MS analysis. The class given is ADME. As to conditions: liver microsomes, time < 120 min.
Data set [3] has as its system HCT-116. Briefly: Antiproliferative activity against human HCT-116 cells assessed as reduction in colony formation incubated for 14 days by crystal violet staining based analysis. The class given is functional, cell-based. The note with it: dose 50-400 nM, time 14.0 day.
The next data set deals with CYP2C9 (Homo sapiens, UniProt P11712). The data set can be described thus: Inhibition of CYP2C9 in human liver microsome at 10 uM pre-incubated with compound for 10 mins in presence of NADPH-regenerating system by LC-MS/MS analysis relative to control. The class given is ADME. As to conditions: liver microsomes.
Chain of CYP2C9 (P11712 whole entry): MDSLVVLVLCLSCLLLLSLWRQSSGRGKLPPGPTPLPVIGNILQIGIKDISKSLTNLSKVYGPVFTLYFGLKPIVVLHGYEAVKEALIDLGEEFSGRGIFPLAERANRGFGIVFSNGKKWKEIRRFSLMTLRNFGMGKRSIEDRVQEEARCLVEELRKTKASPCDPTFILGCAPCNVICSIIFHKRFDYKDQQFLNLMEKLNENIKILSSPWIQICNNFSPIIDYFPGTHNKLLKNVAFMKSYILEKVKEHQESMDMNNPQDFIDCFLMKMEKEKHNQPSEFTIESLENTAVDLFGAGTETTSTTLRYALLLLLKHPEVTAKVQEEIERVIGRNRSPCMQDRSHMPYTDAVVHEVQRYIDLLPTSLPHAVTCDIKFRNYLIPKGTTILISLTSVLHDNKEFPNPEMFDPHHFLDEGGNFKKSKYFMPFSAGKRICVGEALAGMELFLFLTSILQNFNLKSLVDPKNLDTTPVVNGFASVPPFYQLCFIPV
A short description of data set [4]: Stability in human plasma assessed as half life at 100 uM measured up to 120 mins by LC-MS/MS analysis. The class given is ADME, cell-free.
The target in the next data set is CYP1A2 (Homo sapiens, UniProt P05177). Briefly: Inhibition of CYP1A2 in human liver microsome at 10 uM pre-incubated with compound for 10 mins in presence of NADPH-regenerating system by LC-MS/MS analysis relative to control. The class given is ADME. As to conditions: liver microsomes.
Chain of CYP1A2 (P05177 whole entry): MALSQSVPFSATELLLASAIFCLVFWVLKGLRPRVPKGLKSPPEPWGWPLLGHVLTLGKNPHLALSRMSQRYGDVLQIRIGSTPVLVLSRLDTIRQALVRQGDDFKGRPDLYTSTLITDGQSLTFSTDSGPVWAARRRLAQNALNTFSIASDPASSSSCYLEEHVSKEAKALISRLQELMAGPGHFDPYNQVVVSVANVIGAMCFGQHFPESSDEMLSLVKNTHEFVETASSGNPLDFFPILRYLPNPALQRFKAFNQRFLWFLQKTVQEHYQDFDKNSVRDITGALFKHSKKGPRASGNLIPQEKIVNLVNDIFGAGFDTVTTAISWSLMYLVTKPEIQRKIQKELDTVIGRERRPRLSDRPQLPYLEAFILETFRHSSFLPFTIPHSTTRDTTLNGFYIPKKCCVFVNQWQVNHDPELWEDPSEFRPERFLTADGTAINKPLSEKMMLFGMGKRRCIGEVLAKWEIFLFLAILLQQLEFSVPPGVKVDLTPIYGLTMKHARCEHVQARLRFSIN

Molecules are shown by their SMILES. pIC50: −log10 of the molar value.

Chain of CDK9/cyclin T1 (O60563 whole entry): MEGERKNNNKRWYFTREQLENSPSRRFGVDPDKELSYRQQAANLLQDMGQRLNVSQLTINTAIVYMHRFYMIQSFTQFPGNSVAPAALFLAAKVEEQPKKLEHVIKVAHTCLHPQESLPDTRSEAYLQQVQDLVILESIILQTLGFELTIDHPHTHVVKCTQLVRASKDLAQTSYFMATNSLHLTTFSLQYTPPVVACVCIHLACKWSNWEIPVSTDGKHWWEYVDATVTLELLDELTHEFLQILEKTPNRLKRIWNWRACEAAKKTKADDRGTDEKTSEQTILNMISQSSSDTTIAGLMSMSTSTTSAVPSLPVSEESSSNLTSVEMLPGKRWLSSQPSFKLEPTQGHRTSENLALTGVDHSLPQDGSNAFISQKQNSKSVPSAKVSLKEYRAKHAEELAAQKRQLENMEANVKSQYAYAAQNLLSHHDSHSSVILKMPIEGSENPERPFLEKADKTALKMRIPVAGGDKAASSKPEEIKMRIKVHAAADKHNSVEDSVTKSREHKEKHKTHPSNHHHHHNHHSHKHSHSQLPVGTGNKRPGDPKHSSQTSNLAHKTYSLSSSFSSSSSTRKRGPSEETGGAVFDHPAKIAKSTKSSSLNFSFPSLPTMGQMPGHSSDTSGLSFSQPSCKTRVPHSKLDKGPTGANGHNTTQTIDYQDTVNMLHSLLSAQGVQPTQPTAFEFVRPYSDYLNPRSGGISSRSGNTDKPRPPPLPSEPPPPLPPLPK
Chain of CDK9/cyclin T1 (P50750 whole entry): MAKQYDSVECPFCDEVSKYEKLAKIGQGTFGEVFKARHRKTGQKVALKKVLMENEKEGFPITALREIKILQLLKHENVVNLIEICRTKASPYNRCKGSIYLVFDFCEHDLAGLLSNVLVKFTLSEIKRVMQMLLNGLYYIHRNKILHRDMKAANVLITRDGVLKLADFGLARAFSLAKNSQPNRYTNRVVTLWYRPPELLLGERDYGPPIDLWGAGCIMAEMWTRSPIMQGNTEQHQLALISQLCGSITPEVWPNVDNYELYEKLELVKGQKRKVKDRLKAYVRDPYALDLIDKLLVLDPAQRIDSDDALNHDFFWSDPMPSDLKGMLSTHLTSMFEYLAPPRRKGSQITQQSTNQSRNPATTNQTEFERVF
Chain of CYP2C19 (P33261 whole entry): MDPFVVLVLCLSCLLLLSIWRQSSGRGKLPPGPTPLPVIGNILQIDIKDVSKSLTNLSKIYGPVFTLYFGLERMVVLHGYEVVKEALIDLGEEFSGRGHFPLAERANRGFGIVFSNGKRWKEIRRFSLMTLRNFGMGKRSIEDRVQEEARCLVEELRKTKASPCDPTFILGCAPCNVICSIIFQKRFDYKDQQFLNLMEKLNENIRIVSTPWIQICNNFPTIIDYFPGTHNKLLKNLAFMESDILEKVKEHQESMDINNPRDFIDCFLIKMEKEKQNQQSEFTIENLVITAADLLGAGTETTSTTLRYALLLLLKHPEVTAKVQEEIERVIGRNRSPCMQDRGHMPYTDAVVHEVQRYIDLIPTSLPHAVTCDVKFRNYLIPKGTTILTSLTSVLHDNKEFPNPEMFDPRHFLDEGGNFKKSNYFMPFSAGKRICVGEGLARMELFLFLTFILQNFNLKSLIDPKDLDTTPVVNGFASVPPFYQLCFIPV

One may read the pIC50 as the negative decadic logarithm of the IC50, by convention in mol/L. The term GI50 denotes the concentration giving 50% growth inhibition. Regarding `CC(=O)N1CCN(C(=O)c2ccc(NC(=O)Nc3cc(-c4ccc(F)cc4OC(C)C)ccn3)cc2)CC1`, the negative-log IC50 (pIC50) at CDK9/cyclin T1 is under 7.30. Also, the concentration for 50% growth inhibition (GI50) in the data set with HCT-116 [1] and in the data set with HT-29 was over 1 µM in each case.

One may read the inhibition as the share of the control response that was lost under treatment. In the case of `CCC1(c2ccccc2)NC(=O)N(Cc2ccccc2)C1=O` (single isomer, unassigned; (+)), the inhibition at 10 µM on CYP2C19 came out at 88.3%.

With `COc1ccc(-c2ccnc(NC(=O)Nc3cccc(C(=O)N4CCOCC4)c3)c2)cc1`, the pIC50 at CDK9/cyclin T1 was under 7.30. For the same compound, the concentration for 50% growth inhibition (GI50) with HCT-116 [1] and with HT-29 was over 1 µM each time.

As usually defined, the half-life is the time in which the quantity being followed falls by half. In the case of `O=C(O)Cc1ccccc1Nc1c(Cl)cccc1Cl` [DICLOFENAC], in [2], the half-life at 100 µM came to 6.4 min.

Turning to `COc1cc(F)ccc1-c1ccnc(NC(=O)Nc2cccc(C(=O)N3CCOCC3)c2)c1`, the negative logarithm of the IC50 (pIC50) at CDK9/cyclin T1 is 7.56. In addition, the concentration for 50% growth inhibition (GI50) in the data set with HCT-116 [1] and in the data set with HT-29 was over 1 µM each time.

Turning to `O=C(Nc1cccc(C(=O)N2CCOCC2)c1)Nc1cc(-c2ccc(F)c(F)c2)ccn1`, the pIC50 on CDK9/cyclin T1 is under 7.30. The 50% growth inhibitory concentration (GI50) with HCT-116 [1] and with HT-29 was over 1 µM in each case.

Consider `Cc1ncc(-c2ccnc(Nc3ccc(S(C)(=O)=O)cc3)n2)n1C(C)C` [AZD-5438], for which, in the data set on HCT-116 [3], the Activity result was “Dose-dependent-effect”. Moreover, the 50% growth inhibitory concentration (GI50) in the data set on HCT-116 [1] came out at 0.48 µM; in the data set with HT-29, 0.7 µM.

Regarding `CC(C)Oc1cc(F)ccc1-c1ccnc(NC(=O)Nc2cccc(C(=O)N3CCN(C(C)C)CC3)c2)c1`, the pIC50 on CDK9/cyclin T1 was under 7.30. Moreover, the values for the GI50 in the data set with HCT-116 [1] and in the data set with HT-29 were 0.96 µM and 0.67 µM, respectively.

Regarding `CCN1CCN(C(=O)c2cccc(NC(=O)Nc3cc(-c4ccc(F)cc4OC(C)C)ccn3)c2)CC1`, on CDK9/cyclin T1, the pIC50 is 7.78. The concentration for 50% growth inhibition (GI50) in the data set on HCT-116 [1] was 0.2 µM; in the data set on HT-29, 0.57 µM.

As for `O=C(Nc1cccc(C(=O)N2CCOCC2)c1)Nc1cc(-c2ccc(F)cc2OCC2CCCC2)ccn1`, at CDK9/cyclin T1, the negative-log IC50 (pIC50) was 7.23. Besides, the concentration for 50% growth inhibition (GI50) with HCT-116 [1] and with HT-29 was over 1 µM each time.

As for `CC(C)Oc1cc(F)ccc1-c1ccnc(NC(=O)Nc2cccc(C(=O)N3CCCC3)c2)c1`, at CDK9/cyclin T1, the negative-log IC50 (pIC50) is 7.45. For the same compound, the concentration for 50% growth inhibition (GI50) with HCT-116 [1] is over 1 µM; with HT-29 it was 0.18 µM.

Consider `O=C(Nc1cccc(C(=O)N2CCOCC2)c1)Nc1cc(-c2ccc(F)cc2OCC2CCCCC2)ccn1`, for which the pIC50 on CDK9/cyclin T1 is 7.05. The GI50 with HCT-116 [1] and with HT-29 was over 1 µM in each case.

`CCOc1cc(F)ccc1-c1ccnc(NC(=O)Nc2cccc(C(=O)N3CCOCC3)c2)c1`: the pIC50 on CDK9/cyclin T1 was 7.52. The 50% growth inhibitory concentration (GI50) in the data set with HCT-116 [1] and in the data set on HT-29 was over 1 µM each time.

Turning to `CC(C)Oc1cc(F)ccc1-c1ccnc(NC(=O)Nc2ccc(C(=O)N3CCC(F)(F)CC3)cc2)c1`, the negative logarithm of the IC50 (pIC50) on CDK9/cyclin T1 was under 7.30. The GI50 with HCT-116 [1] and in the data set with HT-29 was over 1 µM throughout.

In the case of `O=C(Nc1cccc(C(=O)N2CCOCC2)c1)Nc1cc(-c2ccc(F)cc2)ccn1`, at CDK9/cyclin T1, the pIC50 is under 7.30. The 50% growth inhibitory concentration (GI50) in the data set on HCT-116 [1] and with HT-29 was over 1 µM in each case.

Turning to `COc1ccccc1-c1ccnc(NC(=O)Nc2cccc(C(=O)N3CCOCC3)c2)c1`, on CDK9/cyclin T1, the pIC50 is 7.34. Moreover, the 50% growth inhibitory concentration (GI50) with HCT-116 [1] and with HT-29 was over 1 µM in each case.

As for `CCN1CCN(C(=O)c2ccc(NC(=O)Nc3cc(-c4ccc(F)cc4OC(C)C)ccn3)cc2)CC1`, the pIC50 on CDK9/cyclin T1 is under 7.30. The GI50 in the data set with HCT-116 [1] and in the data set with HT-29 was over 1 µM in each case.

Regarding `CC(C)Oc1cc(F)ccc1-c1ccnc(NC(=O)Nc2cccc(C(=O)N3CCOCC3)c2)c1`, the pIC50 on CDK9/cyclin T1 is 7.68. Further, the figures for the concentration for 50% growth inhibition (GI50) in the data set with HCT-116 [1] and with HT-29 were 0.37 µM and 0.99 µM, respectively.

Take `O=C(Nc1cccc(C(=O)N2CCOCC2)c1)Nc1cc(-c2cc(F)c(F)c(F)c2)ccn1`: the pIC50 at CDK9/cyclin T1 is under 7.30. Further, the 50% growth inhibitory concentration (GI50) with HCT-116 [1] and with HT-29 was over 1 µM each time.

Regarding `O=C(Nc1cccc(C(=O)N2CCOCC2)c1)Nc1cc(-c2cc(F)cc(F)c2)ccn1`, the pIC50 at CDK9/cyclin T1 is under 7.30. In addition, the concentration for 50% growth inhibition (GI50) in the data set with HCT-116 [1] and in the data set with HT-29 was over 1 µM throughout.

In the case of `O=C(Nc1cccc(C(=O)N2CCOCC2)c1)Nc1cc(-c2cccc(Cl)c2)ccn1`, the pIC50 at CDK9/cyclin T1 is 7.45. Further, the GI50 in the data set on HCT-116 [1] and in the data set on HT-29 was over 1 µM throughout.

As to `CC(C)Oc1cc(F)ccc1-c1ccnc(NC(=O)Nc2ccc(C(=O)N3CCOCC3)cc2)c1`, the pIC50 at CDK9/cyclin T1 is under 7.30. Further, the GI50 in the data set with HCT-116 [1] and in the data set with HT-29 was over 1 µM each time.

For the compound `Cc1ccc(-c2ccnc(NC(=O)Nc3cccc(C(=O)N4CCOCC4)c3)c2)cc1`, the negative-log IC50 (pIC50) on CDK9/cyclin T1 is under 7.30. The 50% growth inhibitory concentration (GI50) in the data set with HCT-116 [1] and in the data set on HT-29 was over 1 µM in each case.

`O=C(Nc1cccc(C(=O)N2CCOCC2)c1)Nc1cc(-c2ccc(Cl)cc2F)ccn1`: the pIC50 at CDK9/cyclin T1 is under 7.30. Also, the GI50 in the data set with HCT-116 [1] and with HT-29 was over 1 µM in each case.

As to `CC(C)Oc1cc(F)ccc1-c1ccnc(NC(=O)Nc2ccc(C(=O)N3CCCC3)cc2)c1`, the negative-log IC50 (pIC50) at CDK9/cyclin T1 is under 7.30. Moreover, the GI50 with HCT-116 [1] and in the data set with HT-29 was over 1 µM in each case.

`O=C(Nc1cccc(C(=O)N2CCOCC2)c1)Nc1cc(-c2ccccc2F)ccn1`: on CDK9/cyclin T1, the negative-log IC50 (pIC50) was under 7.30. Besides, the GI50 with HCT-116 [1] and in the data set on HT-29 was over 1 µM throughout.

`CC(=O)N1CCN(C(=O)c2cccc(NC(=O)Nc3cc(-c4ccc(F)cc4OC(C)C)ccn3)c2)CC1`: the negative-log IC50 (pIC50) at CDK9/cyclin T1 is under 7.30. In addition, the concentration for 50% growth inhibition (GI50) in the data set on HCT-116 [1] and with HT-29 was over 1 µM in each case.

On to `O=C(Nc1cccc(C(=O)N2CCOCC2)c1)Nc1cc(-c2cccc(F)c2)ccn1`, for which the pIC50 at CDK9/cyclin T1 was under 7.30. For the same compound, the GI50 with HCT-116 [1] and in the data set on HT-29 was over 1 µM in each case.

Take `O=C(Nc1cccc(C(=O)N2CCOCC2)c1)Nc1cc(-c2ccc(F)cc2F)ccn1`: on CDK9/cyclin T1, the pIC50 is under 7.30. For the same compound, the GI50 with HCT-116 [1] and in the data set on HT-29 was over 1 µM in each case.

For the compound `CC(C)Oc1cc(F)ccc1-c1ccnc(NC(=O)Nc2ccc(C(=O)N3CCN(C)CC3)cc2)c1`, the pIC50 at CDK9/cyclin T1 is under 7.30. The GI50 in the data set with HCT-116 [1] and in the data set on HT-29 was over 1 µM each time.

Turning to `C[C@]12CC[C@H]3[C@@H](CCC4=CC(=O)CC[C@@]43C)[C@@H]1CC[C@@H]2O` [TESTOSTERONE], the half-life at 100 µM in [2] is 7.8 min.

On to `Nc1ccc(S(=O)(=O)Nc2ccnn2-c2ccccc2)cc1` [SULFAPHENAZOLE], for which the inhibition at 10 µM at CYP2C9 is 87.2%.

With `CC(C)Oc1cc(F)ccc1-c1ccnc(NC(=O)Nc2cccc(C(=O)N3CCCN(C)CC3)c2)c1`, at CDK9/cyclin T1, the pIC50 is under 7.30. Besides, the GI50 in the data set on HCT-116 [1] and with HT-29 was over 1 µM each time.

Consider `CC(C)[N+](C)(CCOC(=O)C1c2ccccc2Oc2ccccc21)C(C)C.[Br-]` [PROPANTHELINE BROMIDE], for which the half-life at 100 µM in data set [4] was 15.6 min.

As for `CC(C)Oc1cc(F)ccc1-c1ccnc(NC(=O)Nc2ccc(C(=O)N3CCN(C(C)C)CC3)cc2)c1`, at CDK9/cyclin T1, the pIC50 was under 7.30. Further, the concentration for 50% growth inhibition (GI50) in the data set with HCT-116 [1] and with HT-29 was over 1 µM throughout.

On to `O=c1cc(-c2ccccc2)oc2c1ccc1ccccc12` [ALPHA-NAPHTHOFLAVONE], for which the inhibition at 10 µM on CYP1A2 was 88.4%.
